In brackets after ≈: the same amount, converted by molar mass.
What was measured:
Assay type in all cases: functional
Staphylococcus aureus [1] = experiment: Antibacterial activity against erythromycin-susceptible Staphylococcus aureus ATCC 25923 by standard broth microdilution method
Escherichia coli = experiment: Antibacterial activity against penicillin-susceptible Escherichia coli ATCC 25922 by standard broth microdilution method
Bacillus subtilis = experiment: Antibacterial activity against penicillin-susceptible Bacillus subtilis ATCC 9372 by standard broth microdilution method
Pseudomonas aeruginosa = experiment: Antibacterial activity against penicillin-susceptible Pseudomonas aeruginosa ATCC 27853 by standard broth microdilution method
Streptococcus pneumoniae [2] = experiment: Antibacterial activity against erythromycin-resistant Streptococcus pneumoniae AB11 expressing ermB and me/A genes by standard broth microdilution method
Streptococcus pneumoniae [3] = experiment: Antibacterial activity against erythromycin-resistant Streptococcus pneumoniae B1 expressing ermB gene by standard broth microdilution method
Streptococcus pyogenes = experiment: Antibacterial activity against erythromycin resistant Streptococcus pyogenes R1 by standard broth microdilution method
Staphylococcus aureus [4] = experiment: Antibacterial activity against methicillin-resistant Staphylococcus aureus ATCC 43300 by standard broth microdilution method

SMILES	MIC (Staphylococcus aureus [1])	MIC (Escherichia coli)	MIC (Bacillus subtilis)	MIC (Pseudomonas aeruginosa)	MIC (Streptococcus pneumoniae [2])	MIC (Streptococcus pneumoniae [3])	MIC (Streptococcus pyogenes)	MIC (Staphylococcus aureus [4])
CC[C@H]1OC(=O)[C@H](C)C(=O)[C@H](C)[C@@H](O[C@H]2O[C@@H](C)C[C@@H](N(C)C)[C@@H]2O)[C@](C)(OC)C[C@@H](C)C(=O)[C@H](C)[C@@H](OC(=O)NCCn2cc(-c3ccc(F)cc3)nn2)[C@]1(C)O	16 µg/mL (≈ 19.5 µM)	> 128 µg/mL	4 µg/mL (≈ 4.88 µM)	128 µg/mL (≈ 156 µM)	128 µg/mL (≈ 156 µM)	256 µg/mL (≈ 312 µM)	64 µg/mL (≈ 78.1 µM)	> 256 µg/mL
CC[C@H]1OC(=O)[C@H](C)[C@@H](O[C@H]2C[C@@](C)(OC)[C@@H](O)[C@H](C)O2)[C@H](C)[C@@H](O[C@@H]2O[C@H](C)C[C@H](N(C)C)[C@H]2O)[C@](C)(O)C[C@@H](C)CN(C)[C@H](C)[C@@H](O)[C@]1(C)O [AZITHROMYCIN]	0.25 µg/mL (≈ 0.334 µM)	> 128 µg/mL	0.25 µg/mL (≈ 0.334 µM)	4 µg/mL (≈ 5.34 µM)	256 µg/mL (≈ 342 µM)	> 256 µg/mL	256 µg/mL (≈ 342 µM)	> 256 µg/mL
CC[C@H]1OC(=O)[C@H](C)C(=O)[C@H](C)[C@@H](O[C@H]2O[C@@H](C)C[C@@H](N(C)C)[C@@H]2O)[C@](C)(OC)C[C@@H](C)C(=O)[C@H](C)[C@@H](OC(=O)NCCn2cc(-c3ccc(OC)cc3)nn2)[C@]1(C)O	16 µg/mL (≈ 19.2 µM)	> 128 µg/mL	4 µg/mL (≈ 4.81 µM)	128 µg/mL (≈ 154 µM)	256 µg/mL (≈ 308 µM)	> 256 µg/mL	256 µg/mL (≈ 308 µM)	> 256 µg/mL
CC[C@H]1OC(=O)[C@H](C)C(=O)[C@H](C)[C@@H](O[C@H]2O[C@@H](C)C[C@@H](N(C)C)[C@@H]2O)[C@](C)(OC)C[C@@H](C)C(=O)[C@H](C)[C@@H](OC(=O)NCCn2cc(-c3ccc(Cl)cc3)nn2)[C@]1(C)O	8 µg/mL (≈ 9.56 µM)	> 128 µg/mL	4 µg/mL (≈ 4.78 µM)	128 µg/mL (≈ 153 µM)	128 µg/mL (≈ 153 µM)	128 µg/mL (≈ 153 µM)	64 µg/mL (≈ 76.5 µM)	256 µg/mL (≈ 306 µM)
CC[C@H]1OC(=O)[C@H](C)C(=O)[C@H](C)[C@@H](O[C@H]2O[C@@H](C)C[C@@H](N(C)C)[C@@H]2O)[C@](C)(OC)C[C@@H](C)C(=O)[C@H](C)[C@@H](OC(=O)NCCn2cc(-c3ccc([N+](=O)[O-])cc3)nn2)[C@]1(C)O	16 µg/mL (≈ 18.9 µM)	> 128 µg/mL	4 µg/mL (≈ 4.72 µM)	128 µg/mL (≈ 151 µM)	256 µg/mL (≈ 302 µM)	256 µg/mL (≈ 302 µM)	64 µg/mL (≈ 75.6 µM)	> 256 µg/mL
CC[C@H]1OC(=O)[C@H](C)C(=O)[C@H](C)[C@@H](O[C@H]2O[C@@H](C)C[C@@H](N(C)C)[C@@H]2O)[C@](C)(OC)C[C@@H](C)C(=O)[C@H](C)[C@@H](OC(=O)NCCn2cc(-c3ccccc3)nn2)[C@]1(C)O	32 µg/mL (≈ 39.9 µM)	> 128 µg/mL	8 µg/mL (≈ 9.98 µM)	128 µg/mL (≈ 160 µM)	256 µg/mL (≈ 319 µM)	256 µg/mL (≈ 319 µM)	256 µg/mL (≈ 319 µM)	> 256 µg/mL
CCCc1ccc(-c2cn(CCNC(=O)O[C@@H]3[C@@H](C)C(=O)[C@H](C)C[C@@](C)(OC)[C@H](O[C@H]4O[C@@H](C)C[C@@H](N(C)C)[C@@H]4O)[C@@H](C)C(=O)[C@@H](C)C(=O)O[C@H](CC)[C@@]3(C)O)nn2)cc1	32 µg/mL (≈ 37.9 µM)	> 128 µg/mL	8 µg/mL (≈ 9.48 µM)	128 µg/mL (≈ 152 µM)	128 µg/mL (≈ 152 µM)	256 µg/mL (≈ 303 µM)	64 µg/mL (≈ 75.8 µM)	256 µg/mL (≈ 303 µM)
CC[C@H]1OC(=O)[C@H](C)C(=O)[C@H](C)[C@@H](O[C@H]2O[C@@H](C)C[C@@H](N(C)C)[C@@H]2O)[C@](C)(OC)C[C@@H](C)C(=O)[C@H](C)[C@@H](OC(=O)NCCn2cc(-c3ccccc3Cl)nn2)[C@]1(C)O	8 µg/mL (≈ 9.56 µM)	> 128 µg/mL	4 µg/mL (≈ 4.78 µM)	128 µg/mL (≈ 153 µM)	128 µg/mL (≈ 153 µM)	128 µg/mL (≈ 153 µM)	64 µg/mL (≈ 76.5 µM)	256 µg/mL (≈ 306 µM)
CCOc1ccc(-c2cn(CCNC(=O)O[C@@H]3[C@@H](C)C(=O)[C@H](C)C[C@@](C)(OC)[C@H](O[C@H]4O[C@@H](C)C[C@@H](N(C)C)[C@@H]4O)[C@@H](C)C(=O)[C@@H](C)C(=O)O[C@H](CC)[C@@]3(C)O)nn2)cc1	16 µg/mL (≈ 18.9 µM)	> 128 µg/mL	16 µg/mL (≈ 18.9 µM)	128 µg/mL (≈ 151 µM)	256 µg/mL (≈ 303 µM)	> 256 µg/mL	128 µg/mL (≈ 151 µM)	> 256 µg/mL
CC[C@H]1OC(=O)[C@H](C)C(=O)[C@H](C)[C@@H](O[C@H]2O[C@@H](C)C[C@@H](N(C)C)[C@@H]2O)[C@](C)(OC)C[C@@H](C)C(=O)[C@H](C)[C@@H](OC(=O)NCCn2cc(-c3cccc(F)c3)nn2)[C@]1(C)O	8 µg/mL (≈ 9.76 µM)	> 128 µg/mL	4 µg/mL (≈ 4.88 µM)	128 µg/mL (≈ 156 µM)	128 µg/mL (≈ 156 µM)	256 µg/mL (≈ 312 µM)	128 µg/mL (≈ 156 µM)	256 µg/mL (≈ 312 µM)
CC[C@H]1OC(=O)[C@H](C)C(=O)[C@H](C)[C@@H](O[C@H]2O[C@@H](C)C[C@@H](N(C)C)[C@@H]2O)[C@](C)(OC)C[C@@H](C)C(=O)[C@H](C)[C@@H](OC(=O)NCCn2cc(-c3ccc(C(C)(C)C)cc3)nn2)[C@]1(C)O	32 µg/mL (≈ 37.3 µM)	> 128 µg/mL	8 µg/mL (≈ 9.32 µM)	128 µg/mL (≈ 149 µM)	128 µg/mL (≈ 149 µM)	128 µg/mL (≈ 149 µM)	64 µg/mL (≈ 74.6 µM)	256 µg/mL (≈ 298 µM)
